Several values for one entry are separate records, joined by “and”; a condition that tells them apart may be missing. Identical values can stand only once. Like-named read-outs stand apart in the source and are kept apart here. Values belong to the molecule of their own block, whether it stands above or below them.
How the values were obtained:
cGAS in THP1 cells = experiment: dsDNA-stimulated mRNA induction (qRT-PCR) in THP1 cells; format: cell-based, human; conditions: for IC50: Homo sapiens, THP-1, qRT-PCR
m-cGAS = m-cGAS (Mus musculus, UniProt Q8C6L5); experiment: RapidFire mass spectrometry (RF-MS) cGAS activity assay, m-cGAS; conditions: for IC50: RF-MS
Chain of m-cGAS (Q8C6L5 whole entry): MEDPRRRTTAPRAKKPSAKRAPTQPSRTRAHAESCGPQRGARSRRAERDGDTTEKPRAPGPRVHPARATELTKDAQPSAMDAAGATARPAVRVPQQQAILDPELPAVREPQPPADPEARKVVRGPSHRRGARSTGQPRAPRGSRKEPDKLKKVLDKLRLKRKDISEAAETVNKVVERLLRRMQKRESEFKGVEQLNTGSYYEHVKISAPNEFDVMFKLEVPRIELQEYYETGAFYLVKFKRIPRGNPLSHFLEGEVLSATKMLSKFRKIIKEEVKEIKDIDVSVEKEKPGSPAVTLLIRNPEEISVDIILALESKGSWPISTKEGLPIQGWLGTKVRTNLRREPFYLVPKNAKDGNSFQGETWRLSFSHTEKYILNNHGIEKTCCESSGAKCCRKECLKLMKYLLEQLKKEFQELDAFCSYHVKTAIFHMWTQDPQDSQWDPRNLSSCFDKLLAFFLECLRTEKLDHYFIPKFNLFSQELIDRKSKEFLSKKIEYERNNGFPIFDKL

cGAS in RAW-Lucia cells = experiment: Lucia luciferase reporter assay in dsDNA-stimulated RAW-Lucia cells; conditions: read-out: cell-based IC50 in mouse RAW 264.7 cells
h-cGAS = h-cGAS (Homo sapiens, UniProt Q8N884); experiment: RapidFire mass spectrometry (RF-MS) cGAS activity assay, h-cGAS; conditions: for IC50: RF-MS; for fold improvement of h-cGAS IC50: relative to the parent compound
Chain of h-cGAS (Q8N884 whole entry): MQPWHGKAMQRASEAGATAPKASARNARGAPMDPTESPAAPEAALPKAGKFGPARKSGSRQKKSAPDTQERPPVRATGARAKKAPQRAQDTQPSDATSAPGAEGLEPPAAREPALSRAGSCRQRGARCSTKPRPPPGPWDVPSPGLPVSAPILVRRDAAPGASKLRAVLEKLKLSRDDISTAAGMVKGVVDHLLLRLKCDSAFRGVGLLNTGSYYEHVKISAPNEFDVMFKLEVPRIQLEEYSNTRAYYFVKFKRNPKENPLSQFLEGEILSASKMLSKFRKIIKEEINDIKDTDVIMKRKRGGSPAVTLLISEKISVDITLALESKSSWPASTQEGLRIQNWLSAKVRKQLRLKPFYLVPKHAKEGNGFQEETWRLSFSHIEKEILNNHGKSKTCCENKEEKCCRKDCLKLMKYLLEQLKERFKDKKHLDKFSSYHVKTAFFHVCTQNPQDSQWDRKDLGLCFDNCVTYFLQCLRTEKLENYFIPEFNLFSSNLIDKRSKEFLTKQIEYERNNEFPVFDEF

[1] = Solubility in cell culture media; format: physicochemical
[2] = test system: RIG-I pathway in THP1 cells; experiment: hpRNA-stimulated IFNB1 mRNA induction in THP1 cells (specificity); format: cell-based, human; conditions: THP1, 10 µM inhibitor
[3] = test system: STING pathway in THP1 cells; experiment: cGAMP-stimulated IFNB1 mRNA induction in THP1 cells (specificity); format: cell-based, human
[4] = molecular target: T1, soluble adenylyl cyclase (ADCY10), human sACt protein (Homo sapiens, UniProt Q96PN6); experiment: Soluble adenylyl cyclase (sAC) inhibition assay; format: biochemical; conditions: for IC50: RF-MS readout
T1 construct: were added with 5 µl of human sACt protein
T1 sequence (Q96PN6 1-469 limits assumed): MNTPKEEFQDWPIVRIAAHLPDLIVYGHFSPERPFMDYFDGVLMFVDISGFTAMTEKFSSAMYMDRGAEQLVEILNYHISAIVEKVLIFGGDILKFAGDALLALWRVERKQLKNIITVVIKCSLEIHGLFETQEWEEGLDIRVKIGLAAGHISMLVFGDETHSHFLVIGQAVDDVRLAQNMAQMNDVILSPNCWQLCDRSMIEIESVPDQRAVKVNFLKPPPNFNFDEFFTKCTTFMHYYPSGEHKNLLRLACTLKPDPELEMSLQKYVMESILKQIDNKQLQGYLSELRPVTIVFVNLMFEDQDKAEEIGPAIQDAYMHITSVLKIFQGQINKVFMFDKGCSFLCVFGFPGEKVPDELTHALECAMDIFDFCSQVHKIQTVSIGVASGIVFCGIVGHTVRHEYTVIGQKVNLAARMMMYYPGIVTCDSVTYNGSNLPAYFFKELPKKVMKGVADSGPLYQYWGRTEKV

[5] = test system: NF-κB pathway reporter in THP1-Dual cells; experiment: SEAP NF-κB reporter assay in dsDNA-stimulated THP1-Dual cells; format: cell-based; conditions: Homo sapiens
h-cGAS(Y248F) = experiment: RF-MS assay with mutant h-cGAS(Y248F); format: biochemical, human; conditions: relative to native h-cGAS
THP1 cells = experiment: CellTiter-Glo cytotoxicity assay, THP1; format: cell-based; conditions: 24 h
[6] = test system: cGAS in primary human macrophages; experiment: dsDNA-stimulated mRNA induction (qRT-PCR) in primary human macrophages; format: cell-based; conditions: Macrophage
[7] = test system: STING pathway in RAW 264.7 cells; experiment: cGAMP-stimulated IFNB1 mRNA induction in RAW 264.7 cells (specificity); format: cell-based, mouse; conditions: RAW 264.7, 10 µM J014
45-bp dsDNA = experiment: dsDNA intercalation fluorescence polarization assay (acridine orange); format: binding
cGAS in RAW 264.7 cells = experiment: dsDNA-stimulated IFNB1 mRNA induction (qRT-PCR) in RAW 264.7 cells; format: cell-based; conditions: Mus musculus, RAW264.7
human THP1 cells = test system: human THP1 cells; design: method as in PMID 25821216; conditions: cited from earlier work
[8] = read-out: IC50 CXCL10 mRNA, THP1
[9] = read-out: IC50 IFNB1 mRNA, THP1
[10] = read-out: IC50 CXCL10 mRNA, primary human macrophages
[11] = read-out: IC50 IFNB1 mRNA, primary human macrophages

SMILES: O=C(CO)N1CCc2[nH]c3c(Cl)c(Cl)ccc3c2C1 [G022, 1-(6,7-dichloro-1,3,4,5-tetrahydro-2H-pyrido[4,3-b]indol-2-yl)-2-hydroxyethan-1-one]
inhibition of IFNB1 mRNA induction in human THP1 cells (in words) (cGAS in THP1 cells): no inhibition | IC50 (m-cGAS; IC50 m-cGAS): < 0.024 µM | IC50 (cGAS in RAW-Lucia cells; Mus musculus, RAW264.7, Lucia luciferase per Suppl. Fig. 11a,b): 3.32 µM

SMILES: Cn1c2c(c3ccc(Cl)c(F)c31)CN(C(=O)CO)CC2 [G097]
inhibition of IFNB1 mRNA induction in human THP1 cells (in words) (cGAS in THP1 cells): no inhibition | IC50 (m-cGAS; read-out: IC50 m-cGAS): < 0.024 µM | IC50 (cGAS in RAW-Lucia cells; Lucia luciferase per Suppl. Fig. 11a,b): 1.09 µM | IC50 (h-cGAS; read-out: IC50 h-cGAS): > 0.039 µM

SMILES: O=C(CO)N1CCc2[nH]c3c(Cl)c(Cl)cc(-c4cn[nH]c4)c3c2C1 [G108]
inhibition at 10 µM ([2]; Homo sapiens, THP-1): 20 to 40% | off-target inhibition of hpRNA-stimulated RIG-I pathway (in words) [2]: weak off-target inhibition | IC50 (cGAS in THP1 cells; [8]): 3.56 µM | IC50 (cGAS in THP1 cells; [9]): 2.95 µM | IC50 (m-cGAS; IC50 m-cGAS, in-house synthesized compounds): 5.15 µM and ≥ 5 µM | fold reduction of m-cGAS potency (m-cGAS; relative to G022): 300 fold | inhibition at 10 µM ([3]; Homo sapiens, THP-1, THP1, 10 µM inhibitor): 20 to 40% | off-target inhibition of cGAMP-stimulated STING pathway (in words) ([3]; THP1, 10 µM inhibitor): weak off-target inhibition | IC50 [4]: 26.4 µM | IC50 [5]: 2.27 µM | fold reduction of drug inhibition with h-cGAS(Y248F) (h-cGAS(Y248F)): 250 fold | LD50, THP1 cells (THP1 cells): 56.7 µM | IC50 (h-cGAS; IC50 h-cGAS): 0.0275 µM | IC50 (h-cGAS; IC50 h-cGAS, in-house synthesized compounds): 0.028 µM | fold improvement of h-cGAS IC50 (h-cGAS): 4 fold | IC50 [6, 10]: 0.59 µM | IC50 [6, 11]: 1.53 µM

SMILES: CCN(CC)CCCC(C)Nc1c2ccc(Cl)cc2nc2ccc(OC)cc12 (centres unmarked) [quinacrine]
IC50 (human THP1 cells): 3.7 µM

Now from value to molecule, other results behind:

IC50 (m-cGAS; read-out: IC50 m-cGAS): < 0.024 µM | IC50 (h-cGAS; read-out: IC50 h-cGAS): > 0.039 µM | fold improvement of h-cGAS IC50 (h-cGAS): 2 fold | solubility in cell culture media (in words) [1]: limited solubility
SMILES: COc1cc(Cl)c(Cl)c2[nH]c3c(c12)CN(C(=O)CO)CC3 [G098]

IC50 (cGAS in THP1 cells; [8]): 1.95 µM | IC50 (cGAS in THP1 cells; [9]): 1.7 µM | IC50 (m-cGAS; IC50 m-cGAS): 0.442 µM | inhibition of adenylyl cyclase (in words) [4]: no inhibition | IC50 [4]: > 50 µM | IC50 [5]: 1.36 µM | IC50 (h-cGAS; IC50 h-cGAS): 0.014 µM | fold improvement of h-cGAS IC50 (h-cGAS): 2 fold | IC50 [6, 10]: 0.49 µM | IC50 [6, 11]: 0.86 µM
SMILES: Cn1ccc(-c2cc(Cl)c(Cl)c3[nH]c4c(c23)CN(C(=O)CO)CC4)n1 [G140]
off-target inhibition of hpRNA-stimulated RIG-I pathway (in words) [2]: complete absence of off-target effect | off-target inhibition of cGAMP-stimulated STING pathway (in words) ([3]; THP1, 10 µM inhibitor): complete absence of off-target effect | LD50, THP1 cells (THP1 cells): > 100 µM

IC50 (cGAS in THP1 cells; [9]): 2.63 µM | IC50 (m-cGAS; IC50 m-cGAS): 0.06 µM | fold improvement of m-cGAS IC50 (m-cGAS; relative to the parent compound): 10 fold | IC50 (cGAS in RAW 264.7 cells): 3.58 µM | IC50 (h-cGAS; IC50 h-cGAS): 0.1 µM | fold improvement of h-cGAS IC50 (h-cGAS): 10 fold
SMILES: O=C(Nc1cc(-c2ccccc2)ccn1)c1[nH]ncc1[N+](=O)[O-] [J014]
inhibition with cGAMP instead of dsDNA as activating ligand (in words) [7]: same level of inhibition | % Intercalation at 30 µM (45-bp dsDNA; 30 µM): -22.38% | Polarization (45-bp dsDNA; compound at 30 µM): 277 mP | inhibition with cGAMP instead of dsDNA as activating ligand (in words) ([3]; THP1, 5 µM J014): same level of inhibition | LD50, THP1 cells (THP1 cells): 28.9 µM

Reference: paper PMC6529454, “Development of human cGAS-specific small-molecule inhibitors for repression of dsDNA-triggered interferon expression” (Nature Communications, 2019)
